In assay [1] the test system is rice (Oryza sativa L. japonica). Briefly: Effects on rice seedlings under salt-stress caused by sodium chloride (NaCl). The following applies: 7 days after transplantation, mean ± S.E. Format: in vivo. As for the experimental part: (§1) A filter paper soaked with an aqueous solution of a test agent was laid in a germination dish. Even-sized seeds of rice (Oryza sativa L. japonica) were selected, washed with an aqueous solution containing 0.5% Tween 20 and 1.0% sodium hypochlorite, and then dried. The gemination dishes were sowed with the said rice seeds.
(§2) The seeds were treated with the aqueous solution of the test agent only during the germination period (4 days). The five seeds having equal root lengths were transplanted from germination dishes to water culture vessels with/without NaCl-solution, not containing any test drug. Lengths and weights of both shoots and roots were measured 7 days after transplantation.
(§3) These tests (30° C., 24 h daylight) were repeated 6 times, and the mean value and standard error (S.E.) were obtained.

A further assay relates to rice seedlings. Briefly: Effects on rice seedlings under water-stress caused by mannitol. The following applies: 25° C., 14 h daylight. In kind it is in vivo, Oryza sativa L. japonica. On the procedure:
as §1
The seeds were treated with the aqueous solution of the test agent only during the germination period (4 days). The five seeds having equal root lengths were transplanted from germination dishes to water culture vessels with/without NaCl-solution, not containing any test drug. Lengths and weights of both shoots and roots were measured 7 days after transplantation. […]
Using mannitol instead of NaCl in the similar manner (I) as mentioned above, the effects of the compounds of the present invention inducing resistance against water-stress were studied.

Another assay has as its system tomato seedlings. Description: Effects on tomato seedlings under salt-stress caused by NaCl. The following applies: 0.5% NaCl for 22 days, 25~30° C., 12 h daylight, n = 12~18. In kind it is in vivo. On the procedure:
Tomato seeds were treated with the aqueous solution of the test agent during the germination period (4 days). 9 days after transplantation from germination dishes to water culture vessels, 0.5% NaCl-solution was added to the vessels. The tomato seedlings had been cultivated for 22 days in the culture medium containing NaCl.

The next assay has as its system azalea cuttings. Description: Effect on azaleas under salt-stress caused by CaCl2. The following applies: cuttings in 1×10^-6 M test solution; 20% CaCl2 sprayed; 30 days after CaCl2 treatment; result in words. In kind it is in vivo. As for the experimental part:
Branches about 20 cm from the top of an azalea bush were cut off. The cuttings were dipped into 50 ml of water of the test solution (compound 9; 1×10^-6 M) in a glass culture tube. The solution was replaced with new solution once a week. Six days after cutting of the branches, a 20% solution of CaCl2, which has been used as an antifreezing agent, was sprayed on the cuttings. Thirty days after the CaCl2 treatment, the rate of azalea budding was measured using the following equation: [formula]

A further assay relates to cucumber seedlings. Briefly: Effects on cucumber seedlings under salt-stress caused by NaCl. Format: in vivo. The following applies: 0.5% NaCl for 25 days, 25~32° C., 12 h daylight, n = 5. On the procedure:
Cucumber seeds were treated with the aqueous solution of the test agent during the germination period (3 days). 11 days after transplantation from germination dishes to water culture vessels, 0.5% NaCl-solution was added to the vessels. The cucumber seedlings had been for 25 days cultivated in the culture medium containing NaCl.

Assay [2] relates to rice (Oryza sativa L. japonica). Description: Rice growth in water culture with NaCl in the medium (no test agent). In kind it is in vivo. The following applies: for Root length / Shoot length: no test agent, 7 days after transplantation, mean ± S.E. On the procedure:
as §1, §2, §3

Setting [3] is: 1.5% NaCl, compound 1 × 10^-6 M during germination.
[4] abbreviates: 1.0% NaCl, compound 1 × 10^-4 M during germination (4 days).
Setting [5] is: 1.0% NaCl, compound 1 × 10^-10 M during germination.
[6] abbreviates: 1.5% NaCl, compound 1 × 10^-4 M during germination.
[7] abbreviates: 1.5% NaCl, compound 1 × 10^-10 M during germination.
The mark [8] stands for this setting: 1.0% NaCl, compound 5 × 10^-6 M during germination.
The mark [9] stands for this setting: 1.0% NaCl, compound 5 × 10^-8 M during germination.
Setting [10] is: 1.5% NaCl, compound 5 × 10^-8 M during germination.
The mark [11] stands for this setting: 1.5% NaCl, compound 5 × 10^-10 M during germination.
Where [12] appears, read: 1.0% NaCl, compound 5 × 10^-4 M during germination.
[13] abbreviates: 1.5% NaCl, compound 5 × 10^-4 M during germination.
[14] abbreviates: 2.5% mannitol, compound 1 × 10^-4 M.
Where [15] appears, read: 2.5% mannitol, compound 1 × 10^-8 M.
Where [16] appears, read: 5.0% mannitol, compound 1 × 10^-4 M.
Where [17] appears, read: 5.0% mannitol, compound 1 × 10^-8 M.
[18] abbreviates: 1.5% NaCl, compound 5 × 10^-6 M during germination.
Setting [19] is: 1.0% NaCl, compound 1 × 10^-6 M during germination.
[20] abbreviates: 1.0% NaCl, compound 1 × 10^-8 M during germination.
[21] abbreviates: 1.5% NaCl, compound 1 × 10^-8 M during germination.
The mark [22] stands for this setting: 1.5% NaCl, compound 1 × 10^-10-6 M (so in the source) during germination.

From patent US5446021A, “Agricultural and horticultural compositions inducing resistance in plants against salt- and water-stress” (Nippon Zoki Pharmaceutical Co., Ltd., priority 1988, dated 1995) come the findings set out here.

With `O=C1[C@@H]2CCCN2C(=O)[C@@H]2CCCN12` (racemic) [Compound 15, ±Cyclo(Pro-Pro)], in assay [1] (setting [3]), the Root length is given as 42.7 ± 1.65 mm and the Shoot length is reported as 24.2 ± 0.50 mm.
Turning to `CC(C)C[C@@H]1NC(=O)[C@@H]2CCCN2C1=O` [Compound 2, Cyclo (L-Leu-L-Pro)], the Root length in assay [1] (setting [4]) was found to be 38.2 ± 1.60 mm; in assay [1] (setting [5]), 37.3 ± 1.69 mm; in assay [1] (setting [6]) it was 38.3 ± 1.89 mm; in assay [1] (setting [7]), 39.2 ± 2.11 mm. Moreover, the Shoot length in assay [1] (setting [4]) turned out to be 30.4 ± 0.60 mm; in assay [1] (setting [5]), 31.1 ± 0.60 mm; in assay [1] (setting [6]), 22.3 ± 0.53 mm; in assay [1] (setting [7]) it was 21.9 ± 0.53 mm.
Regarding `CC[C@H](C)[C@@H]1NC(=O)[C@@H]2C[C@@H](O)CN2C1=O` [Compound 4, Cyclo(L-Ile-L-Hyp)], the Root length in assay [1] (setting [8]) is recorded as 19.9 ± 0.60 mm; in assay [1] (setting [9]), 21.2 ± 0.68 mm; in assay [1] (setting [10]), 14.9 ± 0.52 mm; in assay [1] (setting [11]), 14.7 ± 0.52 mm. Moreover, the Shoot length in assay [1] (setting [8]) turned out to be 30.9 ± 1.24 mm; in assay [1] (setting [9]), 27.1 ± 0.67 mm; in assay [1] (setting [10]), 16.0 ± 0.75 mm; in assay [1] (setting [11]), 16.3 ± 0.66 mm.
Regarding `CC(C)C[C@@H]1NC(=O)[C@@H]2C[C@@H](O)CN2C1=O` [Compound 5, Cyclo (L-Leu-L-Hyp)], the Root length was found to be 19.7 ± 0.69 mm in assay [1] (setting [12]), 20.5 ± 0.87 mm in assay [1] (setting [9]), 13.9 ± 0.61 mm in assay [1] (setting [13]) and 15.7 ± 0.58 mm in assay [1] (setting [10]). The Shoot length is reported as 28.7 ± 0.87 mm in assay [1] (setting [12]), 25.4 ± 0.83 mm in assay [1] (setting [9]), 17.1 ± 0.76 mm in assay [1] (setting [13]) and 15.6 ± 0.28 mm in assay [1] (setting [10]).
On to `O=C1[C@@H]2C[C@@H](O)CN2C(=O)[C@@H]2CCCN12` [Compound 9, Cyclo(L-Pro-L-Hyp)], for which the Root length with rice seedlings (setting [14]) was 67.7 ± 23.84 mm; in the assay on rice seedlings (setting [15]), 68.2 ± 10.42 mm; in the assay on rice seedlings (setting [16]) it was 39.6 ± 1.80 mm; in the assay on rice seedlings (setting [17]), 46.7 ± 9.51 mm; in assay [1] (setting [12]), 19.5 ± 0.96 mm; in assay [1] (setting [9]), 21.8 ± 0.86 mm. Further, the figures for the Root length in assay [1] (setting [18]) and in assay [1] (setting [11]) were 15.9 ± 0.44 mm and 14.0 ± 0.49 mm, respectively. Further, the Shoot length in the assay on rice seedlings (setting [14]) was 70.2 ± 3.73 mm; in the assay with rice seedlings (setting [15]), 63.4 ± 2.18 mm; in the assay on rice seedlings (setting [16]), 30.0 ± 2.29 mm; with rice seedlings (setting [17]), 27.1 ± 1.55 mm; in assay [1] (setting [12]) it was 28.8 ± 0.99 mm; in assay [1] (setting [9]) it was 27.1 ± 0.83 mm. The Shoot length was determined as 17.3 ± 0.42 mm in assay [1] (setting [18]) and 16.0 ± 0.64 mm in assay [1] (setting [11]). The “Dried stem and leaves weight” value was found to be 111.4 ± 8.8 mg in the assay with tomato seedlings (compound 1 × 10^-6 M during germination (4 days)) and 141.4 ± 14.4 mg in the assay with tomato seedlings (compound 1 × 10^-8 M during germination (4 days)). In addition, the “Protection of azaleas against salt-stress (rate of azalea budding, FIG. 1)” value in the assay on azalea cuttings is “protecting azaleas against salt-stress”. Further, the Dried stem weight with cucumber seedlings (compound 1 × 10^-6 M during germination (3 days)) is 104.9 ± 7.37 mg; in the assay with cucumber seedlings (compound 1 × 10^-8 M during germination (3 days)), 95.5 ± 3.25 mg.
Regarding `O=C1[C@@H]2C[C@@H](O)CN2C(=O)[C@@H]2C[C@@H](O)CN12` [Compound 13, Cyclo(L-Hyp-L-Hyp)], the Root length is recorded as 38.5 ± 1.66 mm in assay [1] (setting [19]), 38.1 ± 2.03 mm in assay [1] (setting [20]), 35.6 ± 2.28 mm in assay [1] (setting [6]) and 37.9 ± 1.58 mm in assay [1] (setting [21]). Further, the Shoot length in assay [1] (setting [19]) was determined as 29.4 ± 0.61 mm; in assay [1] (setting [20]), 30.5 ± 0.59 mm; in assay [1] (setting [6]) it was 21.4 ± 0.69 mm; in assay [1] (setting [21]), 21.9 ± 0.40 mm.
As for `O=C1[C@@H]2C[C@H](O)CN2C(=O)[C@@H]2C[C@H](O)CN12` [Compound 14, Cyclo(L-aHyp-L-aHyp)], the Root length in assay [1] (setting [19]) is 43.2 ± 1.69 mm; in assay [1] (setting [5]) it was 38.2 ± 1.57 mm; in assay [1] (setting [6]), 35.0 ± 1.77 mm; in assay [1] (setting [22]), 35.3 ± 1.93 mm. Besides, the Shoot length in assay [1] (setting [19]) worked out at 31.8 ± 0.57 mm; in assay [1] (setting [5]) it was 30.4 ± 0.60 mm; in assay [1] (setting [6]), 21.8 ± 0.58 mm; in assay [1] (setting [22]), 22.6 ± 0.83 mm.
For the compound `[Cl-].[Na+]` [NaCl, sodium chloride], the Root length in assay [2] (0.1% NaCl in water culture) was 53.3 ± 2.61 mm; in assay [2] (0.2% NaCl in water culture) it was 39.7 ± 2.02 mm; in assay [2] (0.3% NaCl in water culture) it was 37.8 ± 1.48 mm; in assay [2] (0.5% NaCl in water culture), 33.8 ± 1.76 mm; in assay [2] (0.75% NaCl in water culture), 32.9 ± 1.07 mm; in assay [2] (1.0% NaCl in water culture), 34.0 ± 1.75 mm. Further, the Shoot length worked out at 78.0 ± 1.74 mm in assay [2] (0.1% NaCl in water culture); 77.6 ± 1.63 mm in assay [2] (0.2% NaCl in water culture); 79.2 ± 1.48 mm in assay [2] (0.3% NaCl in water culture); 45.3 ± 1.82 mm in assay [2] (0.5% NaCl in water culture); 34.7 ± 0.66 mm in assay [2] (0.75% NaCl in water culture); 28.2 ± 0.47 mm in assay [2] (1.0% NaCl in water culture). In assay [2] (Table 1, result in words), the “Rice growth with NaCl in the medium” value is “apparently inhibited”.
